Measured values taken from patent US20030237103A1, “Methods and compositions for pharmacological and toxicological evaluation of test agents” (priority 2002, published 2003).

System: Panel, parental and outbred (CD-IGS) rat strains
Experiment: Clinical chemistry endpoints of gentamicin-treated vs. vehicle rats
Details: for T-test value ALB / T-test value ALP / T-test value ALT / T-test value ANION GAP / T-test value AST / T-test value BICARB / T-test value BUN / T-test value CA / T-test value CHOL / T-test value CREAT / T-test value GGT / T-test value GLOB / T-test value GLU / T-test value K / T-test value NA / T-test value PHOS / T-test value TBIL / T-test value TP / T-test value TRIG: 240 mg/Kg gentamicin vs. vehicle
Text: Percent increase is defined as[(mean drug—mean vehicle control)/mean vehicle control×100] for each strain tested. The number of animals tested in each group is noted below the strain designation in parenthesis as #drug treated animals per #vehicle treated animals.
We sought to maximize the range of genetic susceptibility to the adverse drug effects across the strains.

[1] = Panel (all 6 hybrid strains together)
[2] = Parental Group (all 4 parents combined)

## gentamicin
120 mg/kg gentamicin, all strains (not shown)
  nephrotoxic phenotypes at the first dose: did not produce a robust set of phenotypes, except in LEW rats
BN rats
  T-test value ALB: 0.028
  T-test value ALP: 0.040
  T-test value ALT: 0.618
  T-test value ANION GAP: 0.369
  T-test value AST: 0.110
  T-test value BICARB: 0.642
  T-test value BUN: 0.003
  T-test value CA: 0.460
  T-test value CHOL: 0.092
  T-test value CREAT: 0.005
  T-test value GGT: 0.121
  T-test value GLOB: 0.517
  T-test value GLU: 0.937
  T-test value K: 0.264
  T-test value NA: 0.036
  T-test value PHOS: 0.021
  T-test value TBIL: 0.040
  T-test value TP: 0.133
  T-test value TRIG: 0.042
BNxF344 rats
  T-test value ALB: 0.089
  T-test value ALP: 0.000
  T-test value ALT: 0.171
  T-test value ANION GAP: 0.770
  T-test value AST: 0.005
  T-test value BICARB: 0.765
  T-test value BUN: 0.000
  T-test value CA: 0.397
  T-test value CHOL: 0.216
  T-test value CREAT: 0.000
  T-test value GLOB: 0.165
  T-test value GLU: 0.434
  T-test value K: 0.899
  T-test value NA: 0.128
  T-test value PHOS: 0.657
  T-test value TBIL: 0.745
  T-test value TP: 0.802
  T-test value TRIG: 0.000
CD-IGS rats
  T-test value ALB: 0.493
  T-test value ALP: 0.312
  T-test value ALT: 0.714
  T-test value ANION GAP: 0.222
  T-test value AST: 0.740
  T-test value BICARB: 0.030
  T-test value BUN: 0.013
  T-test value CA: 0.078
  T-test value CHOL: 0.742
  T-test value CREAT: 0.024
  T-test value GGT: 0.331
  T-test value GLOB: 0.252
  T-test value GLU: 0.104
  T-test value K: 0.229
  T-test value NA: 0.138
  T-test value PHOS: 0.620
  T-test value TBIL: 0.720
  T-test value TP: 0.807
  T-test value TRIG: 0.946
F344 rats
  T-test value ALB: 0.002
  T-test value ALP: 0.017
  T-test value ALT: 0.108
  T-test value ANION GAP: 0.428
  T-test value AST: 0.304
  T-test value BICARB: 0.080
  T-test value BUN: 0.015
  T-test value CA: 0.637
  T-test value CHOL: 0.811
  T-test value CREAT: 0.006
  T-test value GGT: 0.363
  T-test value GLOB: 0.170
  T-test value GLU: 0.169
  T-test value K: 0.287
  T-test value NA: 0.020
  T-test value PHOS: 0.350
  T-test value TBIL: 0.969
  T-test value TP: 0.000
  T-test value TRIG: 0.052
LEW rats
  T-test value ALB: 0.015
  T-test value ALP: 0.419
  T-test value ALT: 0.080
  T-test value ANION GAP: 0.283
  T-test value AST: 0.754
  T-test value BICARB: 0.061
  T-test value BUN: 0.002
  T-test value CA: 0.000
  T-test value CHOL: 0.007
  T-test value CREAT: 0.006
  T-test value GLOB: 0.167
  T-test value GLU: 0.318
  T-test value K: 0.349
  T-test value NA: 0.361
  T-test value PHOS: 0.203
  T-test value TBIL: 0.648
  T-test value TP: 0.102
  T-test value TRIG: 0.405
LEWxBN rats
  T-test value ALB: 0.081
  T-test value ALP: 0.005
  T-test value ALT: 0.293
  T-test value ANION GAP: 0.071
  T-test value AST: 0.417
  T-test value BICARB: 0.076
  T-test value BUN: 0.001
  T-test value CA: 0.000
  T-test value CHOL: 0.533
  T-test value CREAT: 0.002
  T-test value GLOB: 0.419
  T-test value GLU: 0.016
  T-test value K: 0.145
  T-test value NA: 0.955
  T-test value PHOS: 0.431
  T-test value TBIL: 0.060
  T-test value TP: 0.434
  T-test value TRIG: 0.037
LEWxF344 rats
  T-test value ALB: 0.071
  T-test value ALP: 0.144
  T-test value ALT: 0.380
  T-test value ANION GAP: 0.157
  T-test value AST: 0.375
  T-test value BICARB: 0.114
  T-test value BUN: 0.019
  T-test value CA: 0.777
  T-test value CHOL: 0.889
  T-test value CREAT: 0.014
  T-test value GGT: 0.351
  T-test value GLOB: 0.080
  T-test value GLU: 0.455
  T-test value K: 0.216
  T-test value NA: 0.227
  T-test value PHOS: 0.652
  T-test value TBIL: 0.560
  T-test value TP: 1.000
  T-test value TRIG: 0.129
LEW×F344, BN, F344, LEW and LEW×Bn strains, gentamicin treated
  increase in BUN: 2-3 fold
[1]
  T-test value ALB: 0.000
  T-test value ALP: 0.300
  T-test value ALT: 0.440
  T-test value ANION GAP: 0.802
  T-test value AST: 0.026
  T-test value BICARB: 0.204
  T-test value BUN: 0.000
  T-test value CA: 0.004
  T-test value CHOL: 0.404
  T-test value CREAT: 0.000
  T-test value GGT: 0.078
  T-test value GLOB: 0.024
  T-test value GLU: 0.497
  T-test value K: 0.032
  T-test value NA: 0.064
  T-test value PHOS: 0.091
  T-test value TBIL: 0.244
  T-test value TP: 0.036
  T-test value TRIG: 0.000
[2]
  T-test value ALB: 0.000
  T-test value ALP: 0.037
  T-test value ALT: 0.047
  T-test value ANION GAP: 0.046
  T-test value AST: 0.040
  T-test value BICARB: 0.068
  T-test value BUN: 0.000
  T-test value CA: 0.018
  T-test value CHOL: 0.327
  T-test value CREAT: 0.000
  T-test value GGT: 0.083
  T-test value GLOB: 0.638
  T-test value GLU: 0.244
  T-test value K: 0.486
  T-test value NA: 0.000
  T-test value PHOS: 0.016
  T-test value TBIL: 0.141
  T-test value TP: 0.002
  T-test value TRIG: 0.000
WKY rats
  T-test value ALB: 0.034
  T-test value ALP: 0.003
  T-test value ALT: 0.346
  T-test value ANION GAP: 0.137
  T-test value AST: 0.244
  T-test value BICARB: 0.229
  T-test value BUN: 0.264
  T-test value CA: 0.969
  T-test value CHOL: 0.232
  T-test value CREAT: 0.156
  T-test value GLOB: 0.358
  T-test value GLU: 0.742
  T-test value K: 0.881
  T-test value NA: 0.134
  T-test value PHOS: 0.014
  T-test value TBIL: 0.052
  T-test value TP: 0.254
  T-test value TRIG: 0.010
WKYxBN rats
  T-test value ALB: 0.080
  T-test value ALP: 0.008
  T-test value ALT: 0.172
  T-test value ANION GAP: 0.887
  T-test value AST: 0.575
  T-test value BICARB: 0.923
  T-test value BUN: 0.016
  T-test value CA: 0.175
  T-test value CHOL: 0.610
  T-test value CREAT: 0.026
  T-test value GGT: 0.189
  T-test value GLOB: 0.361
  T-test value GLU: 1.000
  T-test value K: 0.114
  T-test value NA: 0.401
  T-test value PHOS: 0.118
  T-test value TBIL: 0.020
  T-test value TP: 0.070
  T-test value TRIG: 0.032
WKYxF344 rats
  T-test value ALB: 0.002
  T-test value ALP: 0.000
  T-test value ALT: 0.530
  T-test value ANION GAP: 0.434
  T-test value AST: 0.596
  T-test value BICARB: 0.318
  T-test value BUN: 0.005
  T-test value CA: 0.135
  T-test value CHOL: 0.867
  T-test value CREAT: 0.043
  T-test value GLOB: 0.104
  T-test value GLU: 0.375
  T-test value K: 0.270
  T-test value NA: 0.128
  T-test value PHOS: 0.010
  T-test value TBIL: 0.002
  T-test value TP: 0.125
  T-test value TRIG: 0.007
WKYxLEW rats
  T-test value ALB: 0.001
  T-test value ALP: 0.001
  T-test value ALT: 0.584
  T-test value ANION GAP: 0.429
  T-test value AST: 0.677
  T-test value BICARB: 0.085
  T-test value BUN: 0.000
  T-test value CA: 0.092
  T-test value CHOL: 0.608
  T-test value CREAT: 0.000
  T-test value GLOB: 0.365
  T-test value GLU: 0.001
  T-test value K: 0.689
  T-test value NA: 0.514
  T-test value PHOS: 0.123
  T-test value TBIL: 0.685
  T-test value TP: 0.000
  T-test value TRIG: 0.015
